Source: patent US9815851B2, “Pyrrolo carboxamides as modulators of orphan nuclear receptor RAR-related orphan receptor-gamma (RORγ, NR1F3) activity and for the treatment of chronic inflammatory and autoimmune diseases” (PHENEX PHARMACEUTICALS AG, priority 2011, dated 2017)
Read-outs that look alike come from different tables or passages of the source.

How the values were obtained:
RORγ = molecular target: T1, RORγ (UniProt P51449); assay: RORγ Gal4 Reporter Gene Assay in 293T cells (firefly and renilla luciferase); assay type: cell-based, human
T1 sequence (P51449 1-518): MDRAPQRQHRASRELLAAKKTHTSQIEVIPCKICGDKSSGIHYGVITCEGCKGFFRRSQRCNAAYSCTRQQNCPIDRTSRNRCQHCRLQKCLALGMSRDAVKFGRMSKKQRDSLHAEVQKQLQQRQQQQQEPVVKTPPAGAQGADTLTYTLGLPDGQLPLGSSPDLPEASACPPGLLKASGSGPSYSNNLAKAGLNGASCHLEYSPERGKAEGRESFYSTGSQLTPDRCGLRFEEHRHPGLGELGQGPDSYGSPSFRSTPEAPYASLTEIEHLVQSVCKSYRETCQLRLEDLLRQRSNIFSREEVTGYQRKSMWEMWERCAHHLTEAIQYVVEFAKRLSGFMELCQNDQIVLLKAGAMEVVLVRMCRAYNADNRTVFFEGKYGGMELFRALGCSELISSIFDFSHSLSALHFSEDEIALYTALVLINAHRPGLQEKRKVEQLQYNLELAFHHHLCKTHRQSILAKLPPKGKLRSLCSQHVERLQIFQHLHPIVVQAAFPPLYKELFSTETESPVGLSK

[1] = molecular target: T2, RORγ ligand binding domain (LBD) (Homo sapiens, UniProt P51449); assay: TR-FRET Activity Assay (ligand sensing, RORγ-LBD / coactivator peptide interaction, LANCE); assay type: biochemical
T2 construct: made in house; host or cells: E. coli BL-21 (BL3), vector pDEST15
T2 sequence (P51449 269-508 limits assumed): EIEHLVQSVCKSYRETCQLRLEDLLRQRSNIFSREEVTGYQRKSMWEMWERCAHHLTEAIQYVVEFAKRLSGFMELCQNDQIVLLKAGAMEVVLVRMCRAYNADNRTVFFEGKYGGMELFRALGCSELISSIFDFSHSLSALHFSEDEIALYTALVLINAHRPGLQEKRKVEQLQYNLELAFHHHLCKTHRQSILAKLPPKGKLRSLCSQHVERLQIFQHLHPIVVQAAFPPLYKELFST

[2] = second value of the cell, Gal4 reporter gene assay in 293T cells, firefly luciferase
[3] = third value of the cell, Gal4 reporter gene assay in 293T cells, renilla normalised luciferase
[4] = first value of the cell FRET/FF/REN, TR-FRET activity assay, read-out: pIC50 (FRET) (converted)

Row | Compound | pIC50 (FF) (RORγ; [2]) | pIC50 (REN) (RORγ; [3]) | IC50 [1, 4] [nM] | pIC50 (FF) (RORγ) | pIC50 (REN) (RORγ) | IC50 [1] [nM]
1 | CC(C)(C)NS(=O)(=O)c1ccc(-c2cc(C(=O)NC3CCOCC3)c(CF)n2CC2CCCCC2)cc1C(C)(C)C [17/118] | 6.3 | 6.5 | 10000 | – | – | –
2 | Cc1c(C(=O)NCC(C)(C)CC(=O)O)cc(-c2cc(C(C)(C)C)c3c(c2)C2(CCO3)CC2)n1CC1CCCCC1 [17/19] | 7.5 | 7.5 | 794 | – | – | –
3 | Cc1c(C(=O)NC2CCOCC2)cc(-c2ccc(S(=O)(=O)NC(C)(C)C)c(C(F)(F)F)c2)n1CC1(C)CCCC1 [17/176] | 7.1 | 7.0 | 251 | – | – | –
4 | Cc1c(C(=O)N[C@H]2C[C@H](C(=O)O)C2)cc(-c2cc(C(C)(C)C)nc(C3(C)CC3)c2)n1CC1CCCCC1 [17/292] | 7.5 | 7.4 | 1260 | – | – | –
5 | Cc1c(S(=O)(=O)NC(C)(C)C)ccc(-c2cc(C(=O)NCC3(O)CCS(=O)(=O)CC3)c(C)n2CC2CCCCC2)c1Cl [17/290] | 7.6 | 7.6 | 631 | – | – | –
6 | Cc1c(S(=O)(=O)NC(C)(C)C)ccc(-c2cc(C(=O)N[C@H]3C[C@H](C(=O)O)C3)c(C)n2CC2CCCCC2)c1Cl [17/275] | 7.0 | 7.0 | 631 | – | – | –
7 | Cc1c(C(=O)NC2CCOCC2)cc(-c2ccc(S(=O)(=O)NC(C)(C)CO)c(C(F)(F)F)c2)n1CC1CCCCC1 [17/107] | 6.9 | 6.9 | 1000 | – | – | –
8 | COC1(c2cc(-c3cc(C(=O)NC4CCOCC4)c(C)n3CC3CCCCC3)ccc2S(=O)(=O)NC(C)(C)C)CC1 [17/164] | 6.4 | 6.5 | 1260 | – | – | –
9 | CC(C)(C)NS(=O)(=O)c1ccc(-c2cc(C(=O)NCCC(C)(C)C(=O)O)c(C(N)=O)n2CC2CCCCC2)cc1C(F)(F)F [17/169] | 6.7 | 6.7 | 794 | – | – | –
10 | Cc1c(C(=O)NCC(=O)N(C)C)cc(-c2cc(C(C)(C)C)cc(C(C)(C)C)c2)n1CC1CCCCC1 [1/6] | – | – | – | 6.2/6.7/6.7 | 6.2/6.7/6.7 | 631
11 | Cc1c(C(=O)NC2COC2)cc(-c2cc(C(F)(F)F)c3c(c2)C2(CCO3)CC2)n1CC1CCCCC1 [1/132] | 6.8 | 6.8 | 631 | – | – | –
12 | Cc1c(C(=O)NCC(F)(F)F)cc(-c2cc(C(C)(C)C)c(O)c(C(C)(C)C)c2)n1CC1CCCCC1 [1/48] | 6.4 | 6.4 | 631 | – | – | –
13 | Cc1c(C(=O)NC2CCOCC2)cc(-c2cc(Cl)c(S(N)(=O)=O)c(C(F)(F)F)c2)n1CC1CCCCC1 [19/1] | 6.8 | 6.8 | 501 | – | – | –
14 | Cc1c(C(=O)NC2CCOCC2)cc(-c2ccc(S(=O)(=O)NC(C)(C)C)cc2)n1CC1CCCCC1 [17/237] | 6.5 | 6.5 | 1260 | – | – | –
15 | Cc1c(C(=O)NC2COC2)cc(-c2cc(C(C)(C)C)cc(C(C)(C)C)c2)n1S(=O)(=O)N(C)C1CCCCC1 [7/5] | – | – | – | 6.5/6.3/6.4 | 6.5/6.3/6.4 | 316
16 | Cc1c(C(=O)NC2COC2)cc(-c2cc(OCC(C)(C)C)nc(C(F)(F)F)c2)n1CC1CCCCC1 [1/16] | 6.1 | 5.8 | 6310 | – | – | –
17 | Cc1c(C(N)=O)cc(-c2cc(C(C)(C)C)cc(C3(C)CC3)c2)n1CC1CCCCC1 [1/89] | 6.3 | 6.2 | 251 | – | – | –
18 | Cc1c(C(=O)NC2(C)CCOCC2)cc(-c2ccc(S(=O)(=O)NC(C)(C)C)c(C(C)(C)C)c2)n1CC1CCCCC1 [17/206] | – | – | – | 6.2/7.0/7.2 | 6.2/7.0/7.2 | 631
19 | Cc1c(C(=O)NS(C)(=O)=O)cc(-c2cc(C(C)(C)C)cc(C(C)(C)C)c2)n1CC1CCCCC1 [1/51] | 5.9 | 6.1 | 2510 | – | – | –
20 | Cc1c(C(=O)NCC(C)(C)C(=O)O)cc(-c2ccc(S(=O)(=O)NC(C)(C)C)c(C(C)(C)O)c2)n1CC1CCCCC1 [17/327] | 6.8 | 6.9 | 794 | – | – | –
21 | Cc1c(C(=O)NC2CCOCC2)cc(-c2ccc(S(=O)(=O)NC3(C)CC3)c(C(C)(C)C)c2)n1CC1CCCCC1 [17/227] | – | – | – | 6.3/8.1/8.1 | 6.3/8.1/8.1 | 501
22 | Cc1c(C(=O)N2CCC(C)(O)CC2)cc(-c2cc(C(C)(C)C)cc(C(C)(C)C)c2)n1CC1CCCCC1 [1/37] | 6.8 | 6.8 | 316 | – | – | –
23 | Cc1c(C(=O)NC2COC2)cc(-c2cc(C(C)(C)C)c3c(c2)C2(CCO3)CC2)n1CC1CCCCC1 [1/38] | 7.2 | 7.3 | 251 | – | – | –
24 | COC1CN(C(=O)c2cc(-c3cc(C(C)(C)C)cc(C(C)(C)C)c3)n(CC3CCCCC3)c2C)C1 [1/8] | – | – | – | 6.5/6.4/6.3 | 6.5/6.4/6.3 | 316
25 | Cc1c(C(=O)NC2CCOCC2)cc(-c2ccc(S(=O)(=O)N[C@@H](C)C(F)(F)F)c(C(C)(C)C)c2)n1CC1CCCCC1 [17/151] | 8.3 | 8.3 | 316 | – | – | –
26 | Cc1c(C(=O)NC2CCOCC2)cc(-c2ccc(S(=O)(=O)NC(C)(C)C)c(C(F)(F)F)c2)n1CC1(O)CCCCC1 [17/255] | < 4.7 | < 4.7 | 7940 | – | – | –
27 | Cc1c(S(=O)(=O)NC(C)(C)C)ccc(-c2cc(C(=O)NCCC(C)(C)C(=O)O)c(C)n2CC2CCCCC2)c1OC(F)F [17/284] | 7.3 | 7.3 | 1260 | – | – | –
28 | Cc1c(C(=O)N[C@H]2C[C@H](C(=O)O)C2)cc(-c2cc(C(C)(C)C)c3c(c2)C2(CCO3)CC2)n1CC1CCCCC1 [17/55] | 7.5 | 7.6 | 2000 | – | – | –
29 | Cc1c(C(=O)NC2CCOCC2)cc(-c2ccc(S(=O)(=O)NC(C)(C)C)c(OC(F)(F)F)c2)n1CC1CCCCC1 [17/166] | 7.8 | 8.0 | 158 | – | – | –
